According to patent US20050191668A1, “Methods of using peroxisome proliferator-activated receptor alpha target genes” (priority 2004, published 2005):

Key:
Pa13 gene [1] = assay: Pa13 gene expression by real-time RT-PCR in primary skeletal muscle cells; assay type: cell-based, human; conditions: about 18-20 hours, vehicle control = 100
Excerpt: (§1) Human hepatocyte HuH7 cells, which are epithelial cells of liver, were obtained from Japan Health Science Research Resources Bank (Osaka, Japan). Human primary adipocytes, which are connective tissue cells specialized for the synthesis and storage of fat, were obtained from Zen-Bio, Inc (Research Triangle Park, NC). Human primary skeletal muscle cells (SKMC) were obtained from Cambrex Bio Science (Walkersville, Md.). PPARα agonists, Wy14643 (Agatha, et al, 2000, Archives of Biochemistry and Biophysics 380:353-359) and fenofibrates were obtained from Cayman Chemical (Ann Arbor, Mich.) and Sigma (St Louis, Mo.), respectively.
(§2) Human HuH7 cells were cultured in Dulbecco's Modified Eagle Medium with 10% Fetal Bovine Serum (Gibco, N.Y.). Cells were treated with charcoal-stripped, delipidated calf serum (5%) (Sigma, St Louis, Mo.) for about 4-18 hours. Then, cells were treated with different concentrations of PPARα agonist (Wy14643 or fenofibrates) for about 20-24 h. Human SKM cells were cultured in Skeletal Muscle Growth Medium (Cambrex Bio Science, Walkersville, Md.), and were treated with different concentrations of PPARα agonist (Wy14643 or fenofibrates) for about 18-20 hours. Human primary adipocytes were cultured in Preadipocyte Medium, (Cat #PM—1, Zen-Bio, Inc., Research Triangle Park, NC), and were treated with different concentrations of PPARα agonist (Wy14643 or fenofibrates) for about 18-20 hours.
(§3) Total RNA was purified from cultured cells following the protocol provided by the manufacturer (Trizon method, Invitrogen Inc. Ca). The polymerase chain reaction (PCR) primers and fluorescent probes (TagMan probes) for Pa9, Pa13, and Pa21 were designed from GenBank sequences of accession numbers W30988, AB000584, and NM_080725, respectively. The primers and probes were designed using the software PrimerDesign (Applied Biosystems, Foster City, Calif.). The PCR primers for Pa9 were SEQ ID NO: 7, (5-[…]) and SEQ ID NO: 8 (5-[…]). […] The PCR primers for Pa13 were SEQ ID NO: 10 (5-[…], T) and SEQ ID NO: 11 (5-[…] T). […] The PCR primers for Pa21 were SEQ ID NO: 13 (5-[…] C) and SEQ ID NO: 14 (5-[…]). […] All primers and probes were synthesized by Keystone Labs (Camarillo, Calif.).
(§4) Reverse transcription (RT) and PCR were conducted in one step using “One-Step RT-PCR Master Mix Reagent” kit (Applied Biosystems, Foster City, Calif.) in ABI PRISM 7700 Sequence Detection System (Applied Biosystems). Each reaction was performed in a total volume of 25 μl containing 40 ng of total RNA. The reaction condition was: 48° C. for 30 minutes, 60° C. for 30 minutes, 94° C. for 5 minutes, followed by 40 cycles of 94° C. for 20 seconds and 60° C. for 1 minute. The primers for 18S ribosomal RNA were developed and provided by Applied Biosystems. The measurement of human 18S ribosomal RNA was used as an internal control for normalization of measuring and loading errors. PCR data were collected by Ct value (the cycle number at which logarithmic PCR plots cross a calculated threshold line) according to the manufacturer's guidelines and the value was used to determine the Δ^Ct (Ct of the target gene minus the Ct of 18S ribosomal RNA controls). Relative mRNA level was calculated using the equation 2^−ΔΔCt as described previously (Heid et al., 1996, Genome Res. 6:986-994).

Pa13 gene [2] = assay: Pa13 gene expression by real-time RT-PCR in HuH7 hepatocytes; assay type: cell-based, human; conditions: about 20-24 h, vehicle control = 100
Excerpt: as §1, §2, §3, §4

[3] = test system: murine FIAF (fasting induced adipose factor); conditions: PPARα wild type mouse liver cells; cited from earlier work
Pa9 gene = Pa9 gene expression by real-time RT-PCR in primary skeletal muscle cells; assay type: cell-based, human; conditions: for Pa9 (W38098) gene expression, Percentage ± SE (%): about 18-20 hours, vehicle control = 100; for Pa9 gene expression, Fold of Induction: Veh = 1.00
Excerpt: as §1, §2, §3, §4
The nucleotide sequence of the human FDRG gene (AX278133) is provided in SEQ ID NO: 1 and the sequence alignment between W30988 and FDRG gene is shown in FIG. 1. […] Quantitative real-time RT-PCR was performed to test whether gene expression of the human FDRG gene is regulated by PPARα.

Pa21 gene = Pa21 gene expression by real-time RT-PCR in primary skeletal muscle cells; assay type: cell-based, human; conditions: about 18-20 hours, vehicle control = 100
Excerpt: as §1, §2, §3, §4

Cc1cccc(Nc2cc(Cl)nc(SCC(=O)O)n2)c1C [Wy14643]
Pa13 (N26311) gene expression, Percentage ± SE (%) (Pa13 gene [1]; 3 uM): 36.4 ± 6.4%
Pa13 (N26311) gene expression, Percentage ± SE (%) (Pa13 gene [1]; 10 uM): 45.5 ± 10%
Pa13 (N26311) gene expression, Percentage ± SE (%) (Pa13 gene [1]; 30 uM): 136.4 ± 38.7%
Pa13 (N26311) gene expression, Percentage ± SE (%) (Pa13 gene [1]; 100 uM): 290.9 ± 54.1%
Pa13 (N26311) gene expression, Percentage ± SE (%) (Pa13 gene [1]; 300 uM): 1672.7 ± 32%
Pa13 (N26311) gene expression, Percentage ± SE (%) (Pa13 gene [2]; 3 uM): 70 ± 28%
Pa13 (N26311) gene expression, Percentage ± SE (%) (Pa13 gene [2]; 10 uM): 100 ± 4%
Pa13 (N26311) gene expression, Percentage ± SE (%) (Pa13 gene [2]; 30 uM): 140 ± 26.4%
Pa13 (N26311) gene expression, Percentage ± SE (%) (Pa13 gene [2]; 100 uM): 130 ± 17.7%
Pa13 (N26311) gene expression, Percentage ± SE (%) (Pa13 gene [2]; 300 uM): 720 ± 36.4%
expression of murine FIAF [3]: increased
Pa9 (W38098) gene expression, Percentage ± SE (%) (Pa9 gene; 3 uM): 110 ± 24.5%
Pa9 (W38098) gene expression, Percentage ± SE (%) (Pa9 gene; 10 uM): 230 ± 35.7%
Pa9 gene expression, Fold of Induction (Pa9 gene; 30 uM): 3.64 fold
Pa9 (W38098) gene expression, Percentage ± SE (%) (Pa9 gene; 30 uM): 870 ± 30%
Pa9 gene expression, Fold of Induction (Pa9 gene; 100 uM): 6.45 fold
Pa9 (W38098) gene expression, Percentage ± SE (%) (Pa9 gene; 100 uM): 860 ± 0.9%
Pa9 (W38098) gene expression, Percentage ± SE (%) (Pa9 gene; 300 uM): 610 ± 10.2%
Pa21 (H4960) gene expression, Percentage ± SE (%) (Pa21 gene; 3 uM): 130 ± 23.8%
Pa21 (H4960) gene expression, Percentage ± SE (%) (Pa21 gene; 10 uM): 200 ± 48.5%
Pa21 (H4960) gene expression, Percentage ± SE (%) (Pa21 gene; 30 uM): 310 ± 1.9%
Pa21 (H4960) gene expression, Percentage ± SE (%) (Pa21 gene; 100 uM): 560 ± 16.6%
Pa21 (H4960) gene expression, Percentage ± SE (%) (Pa21 gene; 300 uM): 2250 ± 11.7%
